The target of this assay is T1, recombinant human NK3 receptor (Homo sapiens, UniProt P29371).
T1 construct: expressed in transfected cells; host or cells: HEK293 cells (transient expression), membranes
T1 sequence (P29371 1-465): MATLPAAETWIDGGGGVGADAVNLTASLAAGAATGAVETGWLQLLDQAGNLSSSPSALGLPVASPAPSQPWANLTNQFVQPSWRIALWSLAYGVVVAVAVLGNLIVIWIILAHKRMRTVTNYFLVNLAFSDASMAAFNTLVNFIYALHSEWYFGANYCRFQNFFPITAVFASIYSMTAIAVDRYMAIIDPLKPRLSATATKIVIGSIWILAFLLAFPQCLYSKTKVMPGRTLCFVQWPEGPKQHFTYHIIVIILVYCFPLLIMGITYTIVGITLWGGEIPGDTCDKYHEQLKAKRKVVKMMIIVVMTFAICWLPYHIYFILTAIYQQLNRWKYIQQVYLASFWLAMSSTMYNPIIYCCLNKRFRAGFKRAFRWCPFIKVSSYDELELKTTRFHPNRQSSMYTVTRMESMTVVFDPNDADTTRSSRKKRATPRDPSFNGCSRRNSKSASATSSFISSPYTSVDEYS
Briefly: [3H]SR142801 competition binding assay, hNK3 receptor binding. The settings on record: [3H]SR142801 displacement; membranes from HEK293 cells transiently expressing recombinant human NK3 receptor; Ki by Cheng-Prussoff from IC50. How it is done:
The compounds were investigated in accordance with the tests given hereinafter. [^3H]SR142801 competition binding assay hNK3 receptor binding experiment were performed using [^3H]SR142801 (Catalog No. TRK1035, specific activity: 74.0 Ci/mmol, Amersham, GE Healthcare UK limited, Buckinghamshire, UK) and membrane isolated from HEK293 cells transiently expressing recombinant human NK3 receptor. After thawing, the membrane homogenates were centrifuged at 48,000×g for 10 min at 4° C., the pellets were resuspended in the 50 mM Tris-HCl, 4 mM MnCl2, 1 μM phosphoramidon, 0.1% BSA binding buffer at pH 7.4 to a final assay concentration of 5 μg protein/well. For inhibition experiments, membranes were incubated with [^3H]SR142801 at a concentration equal to KD value of radioligand and 10 concentrations of the inhibitory compound (0.0003-10 μM) (in a total reaction volume of 500 μl) for 75 min at room temperature (RT). At the end of the incubation, membranes were filtered onto unitfilter (96-well white microplate with bonded GF/C filter preincubated 1 h in 0.3% PEI+0.3% BSA, Packard BioScience, Meriden, Conn.) with a Filtermate 196 harvester (Packard BioScience) and washed 4 times with ice-cold 50 mM Tris-HCl, pH 7.4 buffer. Nonspecific binding was measured in the presence of 10 μM SB222200 for both radioligands. The radioactivity on the filter was counted (5 min) on a Packard Top-count microplate scintillation counter with quenching correction after addition of 45 μl of microscint 40 (Can berra Packard S. A., Zürich, Switzerland) and shaking for 1 h. Inhibition curves were fitted according to the Hill equation: y=100/(1+(x/IC50)^nH), where nH=slope factor using Excel-fit 4 software (Microsoft). IC50 values were derived from the inhibition curve and the affinity constant (Ki) values were calculated using the Cheng-Prussoff equation Ki=IC50/(1+[L]/KD) where [L] is the concentration of radioligand and KD is its dissociation constant at the receptor, derived from the saturation isotherm. All experiments were performed in duplicate and the mean±standard error (SEM) of the individual Ki values was calculated.
The term Ki denotes the equilibrium dissociation constant of an inhibitor or competing ligand from its target. Turning to `Cc1nc(-c2ccc(C(=O)N3CC[C@H]([C@H](C)Oc4ccc(C#N)cn4)[C@@H](c4ccc(Cl)cc4)C3)cc2)no1` [Example 26, 6-((S)-1-{(3S,4S)-3-(4-Chloro-phenyl)-1-[4-(5-methyl-[1,2,4]oxadiazol-3-yl)-benzoyl]-piperidin-4-yl}-ethoxy)-nicotinonitrile], the Ki is 5.1 nM. The value for `C[C@H](Oc1ccc(C#N)cn1)[C@H]1CCN(C(=O)C2CCN(c3ccc(C#N)cn3)CC2)C[C@@H]1c1ccc(Cl)cc1` [Example 27, 4-{(3S,4S)-3-(4-Chloro-phenyl)-4-[(S)-1-(5-cyano-pyridin-2-yloxy)-ethyl]-piperidine-1-carbonyl}-3,4,5,6-tetrahydro-2H-[1,2′]bipyridinyl-5′-carbonitrile] was 0.3 nM; that for `C[C@H](Oc1ccc(C#N)cn1)[C@H]1CCN(C(=O)N2CCN(S(C)(=O)=O)CC2)C[C@@H]1c1ccc(Cl)cc1` [Example 28, 6-{(S)-1-[(3S,4S)-3-(4-Chloro-phenyl)-1-(4-methanesulfonyl-piperazine-1-carbonyl)-piperidin-4-yl]-ethoxy}-nicotinonitrile] was 3 nM. As to `C[C@H](Oc1ccc(C#N)cn1)[C@H]1CCN(C(=O)c2ccc(-c3ccc(F)cc3)cc2)C[C@@H]1c1ccc(Cl)cc1` [Example 29, 6-{(8)-1-[(3S,4S)-3-(4-Chloro-phenyl)-1-(4′-fluoro-biphenyl-4-carbonyl)-piperidin-4-yl]-ethoxy}-nicotinonitrile], the Ki came to 7.7 nM. `N#Cc1ccc(N2CCC(C(=O)N3CC[C@H](COc4ccc(Cl)cn4)[C@@H](c4ccccc4)C3)CC2)nc1` [Example 47, 4-[(3S,4S)-4-(5-Chloro-pyridin-2-yloxymethyl)-3-phenyl-piperidine-1-carbonyl]-3,4,5,6-tetrahydro-2H-[1,2′]bipyridinyl-5′-carbonitrile]: the Ki turned out to be 9.9 nM. The value for `C[C@H](Oc1ccc(Cl)c(Cl)c1)[C@H]1CCN(C(=O)C2CCN(c3ccc(C#N)cn3)CC2)C[C@@H]1c1ccc(Cl)cc1` [Example 49, 4-{(3S,4S)-3-(4-Chloro-phenyl)-4-[(S)-1-(3,4-dichloro-phenoxy)-ethyl]-piperidine-1-carbonyl}-3,4,5,6-tetrahydro-2H-[1,2′]bipyridinyl-5′-carbonitrile] was 5.5 nM.

Take `C[C@H](Oc1ccc(C(F)(F)F)cc1)[C@H]1CCN(C(=O)C2CCN(c3ccc(C#N)cn3)CC2)C[C@@H]1c1ccc(Cl)cc1` [Example 50, 4-{(3S,4S)-3-(4-Chloro-phenyl)-4-[(S)-1-(4-trifluoromethyl-phenoxy)-ethyl]-piperidine-1-carbonyl}-3,4,5,6-tetrahydro-2H-[1,2′]bipyridinyl-5′-carbonitrile]: the Ki was found to be 1.3 nM. As to `C[C@H](Oc1ccc(C#N)cc1)[C@H]1CCN(C(=O)C2CCN(c3ccc(C#N)cn3)CC2)C[C@@H]1c1ccc(Cl)cc1` [Example 51, 4-{(3S,4S)-3-(4-Chloro-phenyl)-4-[(S)-1-(4-cyano-phenoxy)-ethyl]-piperidine-1-carbonyl}-3,4,5,6-tetrahydro-2H-[1,2′]bipyridinyl-5′-carbonitrile], the Ki was 1.9 nM. Turning to `C[C@H](Oc1ccc(F)cn1)[C@H]1CCN(C(=O)C2CCN(c3ccc(C#N)cn3)CC2)C[C@@H]1c1ccc(Cl)cc1` [Example 52, 4-{(3S,4S)-3-(4-Chloro-phenyl)-4-[(S)-1-(5-fluoro-pyridin-2-yloxy)-ethyl]-piperidine-1-carbonyl}-3,4,5,6-tetrahydro-2H-[1,2′]bipyridinyl-5′-carbonitrile], the Ki is 0.6 nM. Consider `C[C@H](Oc1ccc(F)cc1)[C@H]1CCN(C(=O)C2CCN(c3ccc(C#N)cn3)CC2)C[C@@H]1c1ccc(Cl)cc1` [Example 53, 4-{(3S,4S)-3-(4-Chloro-phenyl)-4-[(S)-1-(4-fluoro-phenoxy)-ethyl]-piperidine-1-carbonyl}-3,4,5,6-tetrahydro-2H-[1,2′]bipyridinyl-5′-carbonitrile], for which the Ki is 0.6 nM.

Values taken from patent publication US8324248B2, “Piperidine derivatives as NK3 receptor antagonists” (Hoffmann-La Roche Inc., priority 2009, dated 2012).
